Measured values from ChEMBL document CHEMBL1124571, “Cardiac glycoside-like structure and function of 5 beta,14 beta-pregnanes” (J Med Chem, 1989).
pIC50: −log10 of the molar value.

Biological target: Sodium/potassium-transporting ATPase
Test: Compound is evaluated for inhibition of specific binding of [3H]ouabain to membranes from dog heart
Set-up: species or system Canis lupus familiaris

| Compound | pIC50 |
| --- | --- |
| CC(=O)[C@@H]1CC[C@@]2(C)[C@@H](CC[C@@H]3[C@@H]2CC[C@]2(C)C([C@H](C)O)CC[C@@]32O)C1 (stereo partly drawn) | 5.22 |
| CC(O)[C@H]1CC[C@@]2(O)[C@@H]3CCC4C[C@@H](O)CC[C@]4(C)[C@H]3CC[C@]12C (stereo partly drawn) | 5.22 |
| CC(=O)[C@H]1CC[C@@]2(O)[C@@H]3CC[C@H]4C[C@@H](O)CC[C@]4(C)[C@H]3CC[C@]12C | 4.68 |
| CC(=O)[C@H]1CC[C@@]2(O)[C@@H]3CC[C@H]4CC(=O)CC[C@]4(C)[C@H]3CC[C@]12C | 4.34 |
| CC(=O)[C@H]1CC[C@@]2(C)[C@@H](CC[C@@H]3[C@@H]2CC[C@]2(C)[C@@H](C(C)=O)CC[C@@]32O)C1 | 4.70 |
| CC(=O)[C@H]1CCC2(O)C3CCC4CC(O)CCC4(C)C3CCC12C (stereo partly drawn) | < 3.40 |
| C[C@H](O)[C@H]1CC[C@@]2(O)[C@@H]3CCC4C[C@@H](OC5CC(O)C(O)C(CO)O5)CC[C@]4(C)[C@H]3CC[C@]12C (stereo in doubt) | 7.22 |
| C[C@H](O)[C@H]1CC[C@@]2(O)[C@@H]3CCC4C[C@@H](OC5CC(O)C(O)C(CO)O5)CC[C@]4(C)[C@H]3CC[C@]12C (stereo in doubt; 5) | 6.40 |
